From ChEMBL document CHEMBL6177980 (J Med Chem, 2025)
In brackets after ≈: the same amount, converted by molar mass. Activity calls are given as the source filed them. No cut-off for these calls is given here.

Key:
[1] = Aqueous solubility of compound; assay type: physicochemical; settings: aqueous medium
[2] = system: Mammarenavirus choriomeningitidis; test: Antiviral activity against LCMV infected in C57BL/6-Prf1tm1Sdz/J mouse assessed as reduction in viral copy number in spleen treated orally once daily for 7 days by RT-qPCR analysis; assay type: functional, organism-based; settings: dose 1-5 mg/kg, route po, time 7.0 day
[3] = Prodrug conversion in Sprague-Dawley rat assessed as volume of distribution at steady state of 4'-Fluorouridine metabolite treated orally or intravenously by LC-MS/MS analysis; assay type: ADME; settings: in vivo, po
[4] = Prodrug conversion in Beagle dog assessed as AUC (0 to t) of 4'-Fluorouridine metabolite at 1 mg/kg, iv by LC-MS/MS analysis; assay type: ADME, organism-based, Canis lupus familiaris; settings: in vivo
[5] = Prodrug conversion in Beagle dog assessed as Cmax of 4'-Fluorouridine metabolite at 1 mg/kg, po by LC-MS/MS analysis; assay type: ADME, organism-based, Canis lupus familiaris; settings: in vivo
[6] = Prodrug conversion in Sprague-Dawley rat assessed as AUC (0 to t) of 4'-Fluorouridine metabolite at 2 mg/kg, po by LC-MS/MS analysis; assay type: ADME, organism-based; settings: in vivo
[7] = Prodrug conversion in Beagle dog assessed as AUC (0 to t) of 4'-Fluorouridine metabolite at 3 mg/kg, po by LC-MS/MS analysis; assay type: ADME, organism-based, Canis lupus familiaris; settings: in vivo
[8] = biological target: Voltage-gated inwardly rectifying potassium channel KCNH2 (Homo sapiens, UniProt Q12809); test: Inhibition of hERG; assay type: toxicity
[9] = Stability of compound at pH 6.8 assessed as change in purity at 1 mg/ml incubated for 12 hrs by HPLC analysis; assay type: physicochemical; settings: buffer, pH 6.8, 12 h
[10] = Prodrug conversion in Beagle dog liver microsomes assessed as parent nucleoside metabolite formation at 1 uM measured up to 60 mins in presence of BNPP/NADPH/UDPGA by LC-MS/MS analysis; assay type: ADME, Canis lupus familiaris, Microsome; settings: 1 h
[11] = system: Mammarenavirus choriomeningitidis; test: Antiviral activity against LCMV infected in C57BL/6-Prf1tm1Sdz/J mouse assessed as reduction in viral copy number in kidney treated orally once daily for 7 days by RT-qPCR analysis; assay type: functional, organism-based; settings: dose 1-5 mg/kg, route po, time 7.0 day
[12] = system: Mammarenavirus choriomeningitidis; test: In vivo antiviral activity against LCMV infected in C57BL/6-Prf1tm1Sdz/J mouse assessed as improvement in splenic tissue lesion at 1 to 5 mg/kg, po qd for 7 days; assay type: functional, organism-based; settings: dose 1-5 mg/kg, time 7.0 day
[13] = Stability of compound at pH 6.8 assessed as change in purity at 1 mg/ml incubated for 24 hrs by HPLC analysis; assay type: physicochemical; settings: buffer, pH 6.8, 24 h
[14] = Prodrug conversion in Beagle dog assessed as AUC (0 to t) of 4'-Fluorouridine metabolite at 3 mg/kg/day, po treated for 7 days by LC-MS/MS analysis; assay type: ADME, organism-based, Canis lupus familiaris; settings: in vivo, 168 h, time 7 day
[15] = Prodrug conversion in Sprague-Dawley rat assessed as 4'-Fluorouridine metabolite formation in stomach at 6 mg/kg, po measured for 0.5 to 24 hrs by LC-MS/MS analysis; assay type: ADME, organism-based; settings: in vivo, time 0.5-24 hrs
[16] = Prodrug conversion in Sprague-Dawley rat assessed as 4'-Fluorouridine metabolite formation in thymus at 6 mg/kg, po measured for 0.5 to 24 hrs by LC-MS/MS analysis; assay type: ADME, organism-based; settings: in vivo, time 0.5-24 hrs
[17] = Prodrug conversion in C57BL/6J mouse plasma assessed as parent nucleoside metabolite formation administered orally or intravenously; assay type: ADME, cell-free; settings: po
[18] = Prodrug conversion in Beagle dog assessed as Cmax of 4'-Fluorouridine metabolite at 3 mg/kg/day, po treated for 7 days by LC-MS/MS analysis; assay type: ADME, organism-based, Canis lupus familiaris; settings: in vivo, 168 h, time 7 day
[19] = Prodrug conversion in Sprague-Dawley rat assessed as AUC (0 to t) of 4'-Fluorouridine metabolite at 2 mg/kg, iv by LC-MS/MS analysis; assay type: ADME, organism-based; settings: in vivo
[20] = Prodrug conversion in Sprague-Dawley rat liver microsomes assessed as parent nucleoside metabolite formation at 1 uM measured up to 60 mins in presence of BNPP/NADPH/UDPGA by LC-MS/MS analysis; assay type: ADME, Microsome; settings: 1 h
[21] = Toxicity in Sprague-Dawley rat assessed as drug tolerance administered as single dose; settings: in vivo
[22] = Stability in C57BL/6J mouse plasma administered orally or intravenously; assay type: ADME, cell-free; settings: po
[23] = Prodrug conversion in C57BL/6J mouse assessed as Cmax of 4'-Fluorouridine metabolite at 6 mg/kg, po by LC-MS/MS analysis; assay type: ADME, organism-based; settings: in vivo
[24] = system: Mammarenavirus choriomeningitidis; test: In vivo antiviral activity against LCMV infected in C57BL/6-Prf1tm1Sdz/J mouse assessed as animal survival rate at 1 to 5 mg/kg, po qd treated for 7 days relative to control; assay type: functional; settings: dose 1-5 mg/kg, time 7 day
[25] = Prodrug conversion in Sprague-Dawley rat assessed as 4'-Fluorouridine metabolite formation in kidney at 6 mg/kg, po measured for 0.5 to 24 hrs by LC-MS/MS analysis; assay type: ADME, organism-based; settings: in vivo, time 0.5-24 hrs
[26] = Stability of compound at pH 4.0 assessed as change in purity at 1 mg/ml incubated for 24 hrs by HPLC analysis; assay type: physicochemical; settings: buffer, pH 4, 24 h
[27] = Prodrug conversion in C57BL/6J mouse assessed as Cmax of 4'-Fluorouridine metabolite at 2 mg/kg, po by LC-MS/MS analysis; assay type: ADME, organism-based; settings: in vivo
[28] = Prodrug conversion in Sprague-Dawley rat liver microsomes assessed as parent nucleoside metabolite formation at 1 uM measured up to 60 mins in presence of NADPH/UDPGA by LC-MS/MS analysis; assay type: ADME, Microsome; settings: 1 h
A549 = test: Cytotoxicity against human A549 cells up to 100 uM; assay type: toxicity, cell-based; settings: a549, 100 µM
[29] = Toxicity in Sprague-Dawley rat assessed as maximum tolerated dose; settings: in vivo
[30] = Stability of compound at pH 6.8 assessed as change in purity at 1 mg/ml incubated for 4 hrs by HPLC analysis; assay type: physicochemical; settings: buffer, pH 6.8, 4 h
[31] = Oral bioavailability in fasted Cynomolgus monkey administered orally by LC-MS/MS analysis; assay type: ADME, organism-based, Macaca fascicularis; settings: in vivo
[32] = Prodrug conversion in Sprague-Dawley rat assessed as 4'-Fluorouridine metabolite formation in liver at 6 mg/kg, po measured for 0.5 to 24 hrs by LC-MS/MS analysis; assay type: ADME, organism-based; settings: in vivo, time 0.5-24 hrs
[33] = Prodrug conversion in Sprague-Dawley rat assessed as Cmax of 4'-Fluorouridine metabolite at 2 mg/kg, po by LC-MS/MS analysis; assay type: ADME, organism-based; settings: in vivo
[34] = system: Mammarenavirus choriomeningitidis; test: In vivo antiviral activity against LCMV infected in C57BL/6-Prf1tm1Sdz/J mouse assessed as void of necrosis in spleen at 1 to 5 mg/kg, po qd for 7 days; assay type: functional, organism-based; settings: dose 1-5 mg/kg, time 7.0 day
[35] = Prodrug conversion in C57BL/6J mouse assessed as Cmax of 4'-Fluorouridine metabolite at 20 mg/kg, po by LC-MS/MS analysis; assay type: ADME, organism-based; settings: in vivo
[36] = system: Mammarenavirus choriomeningitidis; test: Antiviral activity against LCMV infected in C57BL/6-Prf1tm1Sdz/J mouse assessed as reduction in viral titer in kidney treated orally once daily for 7 days by RT-qPCR analysis; assay type: functional, organism-based; settings: dose 1-5 mg/kg, route po, time 7.0 day
[37] = Stability of compound at pH 4.0 assessed as change in purity at 1 mg/ml incubated for 12 hrs by HPLC analysis; assay type: physicochemical; settings: buffer, pH 4, 12 h

Voltage-gated inwardly rectifying potassium channel KCNH2, sequence (Q12809 whole entry): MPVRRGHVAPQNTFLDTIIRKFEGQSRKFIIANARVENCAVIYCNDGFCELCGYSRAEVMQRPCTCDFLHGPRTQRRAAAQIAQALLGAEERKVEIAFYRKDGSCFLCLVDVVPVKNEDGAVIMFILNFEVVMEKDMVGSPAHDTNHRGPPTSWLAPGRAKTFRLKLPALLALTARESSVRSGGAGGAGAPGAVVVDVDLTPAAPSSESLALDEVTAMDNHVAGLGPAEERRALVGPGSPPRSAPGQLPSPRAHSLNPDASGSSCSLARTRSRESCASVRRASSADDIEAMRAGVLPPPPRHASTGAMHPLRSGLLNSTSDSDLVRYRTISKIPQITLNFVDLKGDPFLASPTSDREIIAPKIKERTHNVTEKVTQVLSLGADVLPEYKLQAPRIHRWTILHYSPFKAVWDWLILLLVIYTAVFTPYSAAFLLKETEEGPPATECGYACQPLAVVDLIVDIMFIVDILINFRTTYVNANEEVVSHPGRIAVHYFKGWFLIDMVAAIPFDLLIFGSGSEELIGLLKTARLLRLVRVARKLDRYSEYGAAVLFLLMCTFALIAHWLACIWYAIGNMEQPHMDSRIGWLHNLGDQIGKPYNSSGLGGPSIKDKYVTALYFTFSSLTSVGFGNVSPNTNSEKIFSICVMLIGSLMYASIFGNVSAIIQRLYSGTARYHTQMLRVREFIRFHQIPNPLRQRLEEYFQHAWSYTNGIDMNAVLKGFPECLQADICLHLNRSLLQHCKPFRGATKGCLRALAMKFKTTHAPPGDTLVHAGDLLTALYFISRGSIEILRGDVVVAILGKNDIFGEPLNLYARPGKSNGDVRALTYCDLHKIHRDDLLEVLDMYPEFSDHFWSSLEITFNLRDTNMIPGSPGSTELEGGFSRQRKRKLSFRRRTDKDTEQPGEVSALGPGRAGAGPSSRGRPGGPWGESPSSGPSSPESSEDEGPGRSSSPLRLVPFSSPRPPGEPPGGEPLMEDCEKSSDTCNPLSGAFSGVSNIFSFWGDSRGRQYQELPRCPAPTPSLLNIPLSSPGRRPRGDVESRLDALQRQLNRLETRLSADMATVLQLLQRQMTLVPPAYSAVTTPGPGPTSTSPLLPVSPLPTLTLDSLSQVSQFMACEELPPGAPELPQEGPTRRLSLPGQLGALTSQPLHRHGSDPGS

CC(C)C(=O)OC[C@@]1(F)O[C@@H](n2ccc(=O)n(COC(=O)c3cccnc3)c2=O)[C@H](OC(=O)C(C)C)[C@@H]1OC(=O)C(C)C
solubility [1]: 10 µg/mL (≈ 16.5 µM)
Activity [2]: Dose-dependent-effect
Vdss [3]: 24.3 L/kg
AUCt [4]: 282 ng·h/mL
Cmax [5]: 139 ng/mL
AUCt [6]: 962 ng·h/mL
AUCt [7]: 903 ng·h/mL
inhibition (INH) [8]: Not_active
Activity [9]: -0.3%
Drug metabolism [10]: metabolite_notdetected
Activity [11]: Dose-dependent-effect
Activity [12]: Active
Activity [13]: -0.6%
AUCt [14]: 1249 ng·h/mL
Drug metabolism [15]: metabolite_detected
Drug metabolism [16]: metabolite_detected
Drug metabolism [17]: metabolite_detected
Cmax [18]: 411 ng/mL
AUCt [19]: 1056 ng·h/mL
Drug metabolism [20]: metabolite_notdetected
Activity [21]: Non-toxic
Stability [22]: Unstable
Cmax [23]: 266 ng/mL
Survival [24]: 100%
Drug metabolism [25]: metabolite_detected
Activity [26]: -0.1%
Cmax [27]: 57 ng/mL
Drug metabolism [28]: metabolite_detected
Activity (A549): Non-toxic
MTD [29]: > 500 mg/kg
Activity [30]: -0.1%
bioavailability [31]: 75.2%
Drug metabolism [32]: metabolite_detected
Cmax [33]: 119 ng/mL
Activity [34]: Active
Cmax [35]: 788 ng/mL
Activity [36]: Dose-dependent-effect
Activity [37]: 0%
